Source: EP4121415B1, “INHIBITORS OF CYTOKININ OXIDASE DERIVED FROM 1-[2-(HYDROXYALKYL)PHENYL]-3-YLUREA, USE THEREOF AND PREPARATIONS CONTAINING THESE DERIVATIVES” (Univerzita Palackého v Olomouci, priority 2020, dated 2021)
Read-outs that look alike come from different tables or passages of the source.

Molecular target: T1, maize enzyme cytokinin oxidase/dehydrogenase 1 (ZmCKX1) (Zea mays, UniProt Q9T0N8)
T1 construct: made in house; host or cells: Yarrowia lipolytica
Experiment: ZmCKX1 inhibition, PMS/MTT assay
Format: biochemical
Experimental: The IC50 (concentration of a substance that causes 50% inhibition of the enzyme activity) was measured by PMS/MTT assay [phenazine methosulphate/3-(4,5-dimethylthiazol-2-yl)-2,5-diphenyltetrazolium bromide]. The assay was performed in 96-well microtiter plates. Each well contained a reaction mixture with a final concentration of: 0.1 M KH2PO4, pH 7.4, 1 mM MTT, 0.2 mM PMS, tested substance in a concentration range of 0.1 nM - 1 µM and 10 µM N^6-isopentenyladenine (iP) as a substrate. To this reaction mixture 100 µL of medium containing the active enzyme ZmCKX1 was added. The enzyme was produced by the yeast Yarrowia lipolytica and isolated according to the protocol (Kopečný D. et al., 2005, […] 87:1011-1022). The plates were incubated for 30 min at 37 °C and the enzymatic reaction was stopped by the addition of 25 µL of 35% acetic acid. Then, the absorbance at 578 nm was measured on a spectrophotometer, and the absorbance of the sample without the substrate was substracted as a reference value. The IC50 value was determined from the concentration-dependent curves in GraphPad Prism software. The values shown in Table 1 are the average of at least two measurements each performed in three repetitions. […] This also applies to 3,5-DCl-Ph-U derivatives.

[1] = 10 µM N6-isopentenyladenine (iP) as substrate, pH 7.4, 30 min at 37 °C, average of at least two measurements, read-out: IC50 (µM) ZmCKX1

T1 sequence (Q9T0N8 19-534): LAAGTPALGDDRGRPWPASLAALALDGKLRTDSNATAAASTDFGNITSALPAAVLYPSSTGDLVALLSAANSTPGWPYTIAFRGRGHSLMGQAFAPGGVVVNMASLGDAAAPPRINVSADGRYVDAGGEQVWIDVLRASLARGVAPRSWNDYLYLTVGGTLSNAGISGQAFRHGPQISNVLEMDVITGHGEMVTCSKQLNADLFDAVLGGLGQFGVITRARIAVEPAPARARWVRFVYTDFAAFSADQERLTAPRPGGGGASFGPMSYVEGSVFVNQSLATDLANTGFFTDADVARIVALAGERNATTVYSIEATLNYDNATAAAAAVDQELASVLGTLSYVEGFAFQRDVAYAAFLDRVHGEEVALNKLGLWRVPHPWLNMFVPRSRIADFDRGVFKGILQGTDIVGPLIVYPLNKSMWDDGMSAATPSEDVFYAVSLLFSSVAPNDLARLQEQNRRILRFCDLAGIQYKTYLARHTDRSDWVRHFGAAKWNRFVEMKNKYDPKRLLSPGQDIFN

| SMILES | IC50 [1] [µM] | IC50 [µM] |
| --- | --- | --- |
| O=C(Nc1ccnc(F)c1)Nc1ccccc1CO [Compound 1, 1-(2-fluoropyridin-4-yl)-3-(2-hydroxymethylphenyl)urea] | 2.5 |  |
| O=C(Nc1cc(F)nc(F)c1)Nc1ccccc1CO [Compound 3, 1-(2,6-difluoropyridin-4-yl)-3-(2-hydroxymethylphenyl)urea] | 0.82 |  |
| O=C(Nc1ccnc(Cl)c1)Nc1ccccc1CO [Compound 4, 1-(2-chloropyridin-4-yl)-3-(2-hydroxymethylphenyl)urea] | 1.6 |  |
| O=C(Nc1cc(Cl)nc(Cl)c1)Nc1ccccc1CO [Compound 5, 1-(2,6-dichloropyridin-4-yl)-3-(2-hydroxymethylphenyl)urea] | 0.7 |  |
| COc1cc(NC(=O)Nc2ccccc2CO)ccn1 [Compound 7, 1-(2-methoxypyridin-4-yl)-3-(2-hydroxymethylphenyl)urea] | 1.1 |  |
| O=C(Nc1ccnc(F)c1)Nc1ccccc1CCO [Compound 9, 1-(2-fluoropyridin-4-yl)-3-[2-(2-hydroxyethyl)phenyl]urea] | 1.6 |  |
| O=C(Nc1cc(F)nc(F)c1)Nc1ccccc1CCO [Compound 10, 1-(2,6-difluoropyridin-4-yl)-3-[2-(2-hydroxyethyl)phenyl]urea] | 0.72 |  |
| O=C(Nc1ccnc(Cl)c1)Nc1ccccc1CCO [Compound 12, 1-(2-Chloropyridin-4-yl)-3-[2-(2-hydroxyethyl)phenyl]urea] | 1.3 |  |
| O=C(Nc1cc(Cl)nc(Cl)c1)Nc1ccccc1CCO [Compound 13, 1-(2,6-Dichloropyridin-4-yl)-3-[2-(2-hydroxyethyl)phenyl]urea] | 0.43 |  |
| O=C(Nc1cc(Cl)nc(Cl)c1)Nc1cc(F)ccc1CCO [Compound 14, 1-[5-fluoro-2-(2-hydroxyethyl)phenyl]-3-(2,6-dichloropyridin-4-yl)urea] | 0.056 |  |
| COc1cc(NC(=O)Nc2cc(F)ccc2CCO)ccn1 [Compound 15, 1-[5-fluoro-2-(2-hydroxyethyl)phenyl]-3-(2-methoxypyridin-4-yl)urea] | 0.15 |  |
| O=C(Nc1cc(F)cc(F)c1)Nc1ccccc1CO [Compound 17, 1-(3,5-difluorophenyl)-3-(2-hydroxymethylphenyl)urea] | 0.65 |  |
| O=C(Nc1cc(Cl)cc(Cl)c1)Nc1ccccc1CO [Compound 18, 1-(3,5-Dichlorophenyl)-3-(2-hydroxymethylphenyl)urea] | 0.4 |  |
| O=C(Nc1cc(Br)cc(Br)c1)Nc1ccccc1CO [Compound 19, 1-(3,5-dibromophenyl)-3-(2-hydroxymethylphenyl)urea] | 0.33 |  |
| O=C(Nc1cc(Cl)cc(Cl)c1)Nc1cccc(Cl)c1CO [Compound 20, 1-(3-Chloro-2-hydroxymethylphenyl)-3-(3,5-dichlorophenyl)urea] | 0.27 |  |
| O=C(Nc1cc(Cl)cc(Cl)c1)Nc1cc(Cl)cc(Cl)c1CO [Compound 21, 1-(3,5-Dichloro-2-hydroxymethylphenyl)-3-(3,5-dichlorophenyl)urea] | 0.02 |  |
| COc1cc(NCCO)cc(NC(=O)Nc2ccccc2CO)c1 [Compound 23, 1-[3-(2-hydroxyethylamino)-5-methoxyphenyl]-3-(2-hydroxymethylphenyl)urea] | 0.2 |  |
| COc1cc(NCCN)cc(NC(=O)Nc2ccccc2CO)c1 [Compound 24, 1-[3-(2-aminoethylamino)-5-methoxyphenyl]-3-(2-hydroxymethylphenyl)urea] | 0.18 |  |
| CSc1cccc(NC(=O)Nc2ccccc2CO)c1 [Compound 26, 1-(2-hydroxymethylphenyl)-3-(3-methylsulphanylphenyl)urea] | 1.5 |  |
| O=C(Nc1cccc(OC(F)(F)F)c1)Nc1ccccc1CO [Compound 28, 1-(2-Hydroxymethylphenyl)-3-(3-trifluoromethoxyphenyl)urea] | 1.3 |  |
| O=C(Nc1cccc(OC(F)(F)F)c1)Nc1cccc(F)c1CO [Compound 29, 1-(3-fluoro-2-hydroxymethylphenyl)-3-(3-trifluoromethoxyphenyl)urea] | 0.36 |  |
| O=C(Nc1cccc(OC(F)(F)F)c1)Nc1cccc(Cl)c1CO [Compound 30, 1-(3-Chloro-2-hydroxymethylphenyl)-3-(3-trifluoromethoxyphenyl)urea] | 0.3 |  |
| O=C(Nc1cccc(OC(F)(F)F)c1)Nc1cccc(Br)c1CO [Compound 31, 1-(3-bromo-2-hydroxymethylphenyl)-3-(3-trifluoro-methoxyphenyl)urea] | 0.37 |  |

| SMILES | IC50 [1] [µM] | IC50 [µM] |
| --- | --- | --- |
| O=C(Nc1cccc(OC(F)(F)F)c1)Nc1cc(F)ccc1CO [Compound 32, 1-(5-fluoro-2-hydroxymethylphenyl)-3-(3-trifluoromethoxyphenyl)urea] | 0.11 |  |
| O=C(Nc1cccc(OC(F)(F)F)c1)Nc1cc(Cl)ccc1CO [Compound 33, 1-(5-Chloro-2-hydroxymethylphenyl)-3-(3-trifluoromethoxyphenyl)urea] | 0.06 |  |
| O=C(Nc1cccc(OC(F)(F)F)c1)Nc1cc(F)cc(F)c1CO [Compound 35, 1-(3,5-Difluoro-2-hydroxymethylphenyl)-3-(3-trifluoromethoxyphenyl)urea] | 0.085 |  |
| O=C(Nc1cccc(OC(F)(F)F)c1)Nc1cc(Cl)cc(Cl)c1CO [Compound 36, 1-(3,5-dichloro-2-hydroxymethylphenyl)-3-(3-trifluoromethoxyphenyl)urea] | 0.032 |  |
| O=C(Nc1cccc(OC(F)(F)F)c1)Nc1cc(Br)cc(Br)c1CO [Compound 37, 1-(3,5-dibromo-2-hydroxymethylphenyl)-3-(3-trifluoromethoxyphenyl)urea] | 0.051 |  |
| O=C(Nc1cc(NCCO)cc(OC(F)(F)F)c1)Nc1ccccc1CO [Compound 38, 1-[3-(2-hydroxyethylamino)-5-trifluoromethoxyphenyl]-3-(2-hydroxymethylphenyl)urea] | 0.1 |  |
| NCCNc1cc(NC(=O)Nc2ccccc2CO)cc(OC(F)(F)F)c1 [Compound 39, 1-[3-(2-aminoethylamino)-5-trifluoromethoxyphenyl]-3-(2-hydroxymethylphenyl)urea] | 0.095 |  |
| O=C(Nc1cccc(SC(F)(F)F)c1)Nc1ccccc1CO [Compound 41, 1-(2-hydroxymethylphenyl)-3-(3-trifluoromethylsulphanylphenyl)urea] | 0.14 |  |
| O=C(Nc1cccc(SC(F)(F)F)c1)Nc1cc(Cl)ccc1CO [Compound 43, 1-(5-chloro-2-hydroxymethylphenyl)-3-(3-trifluoromethylsulphanylphenyl)urea] | 0.02 |  |
| O=C(Nc1cc(F)cc(F)c1)Nc1ccccc1CCO [Compound 44, 1-(3,5-difluorophenyl)-3-[2-(2-hydroxyethyl)phenyl]urea] | 0.36 |  |
| O=C(Nc1cc(Cl)cc(Cl)c1)Nc1ccccc1CCO [Compound 45, 1-(3,5-Dichlorophenyl)-3-[2-(2-hydroxyethyl)phenyl]urea] | 0.18 |  |
| O=C(Nc1cc(Br)cc(Br)c1)Nc1ccccc1CCO [Compound 46, 1-(3,5-dibromophenyl)-3-[2-(2-hydroxyethyl)phenyl]urea] | 0.14 |  |
| O=C(Nc1cc(F)cc(Br)c1)Nc1ccccc1CCO [Compound 47, 1-(3-bromo-5-fluorophenyl)-3-[2-(2-hydroxyethyl)phenyl]urea] |  | 0.17 |
| O=C(Nc1cc(F)cc(Cl)c1)Nc1ccccc1CCO [Compound 48, 1-(3-chloro-5-fluorophenyl)-3-[2-(2-hydroxyethyl)phenyl]urea] | 0.21 |  |
| O=C(Nc1cc(Cl)cc(Cl)c1)Nc1cc(Cl)cc(Cl)c1CCO [Compound 49, 1-[3,5-Dichloro-2-(2-hydroxyethyl)phenyl]-3-(3,5-dichlorophenyl)urea] | 0.01 |  |
| COc1cccc(NC(=O)Nc2ccccc2CCO)c1 [Compound 50, 1-[2-(2-hydroxyethyl)phenyl]-3-(3-methoxyphenyl)urea] | 0.27 |  |
| COc1cc(F)cc(NC(=O)Nc2ccccc2CCO)c1 [Compound 54, 1-(3-fluoro-5-methoxyphenyl)-3-[2-(2-hydroxyethyl)phenyl]urea] | 0.28 |  |
| COc1cc(Cl)cc(NC(=O)Nc2ccccc2CCO)c1 [Compound 55, 1-(3-Chloro-5-methoxyphenyl)-3-[2-(2-hydroxyethyl)phenyl]urea] | 0.18 |  |
| COc1cc(Br)cc(NC(=O)Nc2ccccc2CCO)c1 [Compound 56, 1-(3-bromo-5-methoxyphenyl)-3-[2-(2-hydroxyethyl)phenyl]urea] |  | 0.14 |
| COc1cc(NCCO)cc(NC(=O)Nc2ccccc2CCO)c1 [Compound 57, 1-[3-(2-hydroxyethylamino)-5-methoxyphenyl]-3-[2-(2-hydroxyethyl)phenyl]urea] | 0.16 |  |
| COc1cc(NCCN)cc(NC(=O)Nc2ccccc2CCO)c1 [Compound 58] | 0.13 |  |
| O=C(Nc1cccc(OC(F)(F)F)c1)Nc1cc(F)ccc1CCO [Compound 63, 1-[5-fluoro-2-(2-hydroxyethyl)phenyl]-3-(3-trifluoromethoxyphenyl)urea] | 0.036 |  |
| NCCNc1cc(NC(=O)Nc2ccccc2CCO)cc(OC(F)(F)F)c1 [Compound 67] | 0.022 |  |
